The source of these data is patent US20250052749A1, “SYSTEMS AND METHODS OF SELECTING COMPOUNDS THAT INDUCE CONFORMATIONAL CHANGES IN MUTANT CEREBLON” (BRISTOL-MYERS SQUIBB COMPANY, priority 2021, published 2025).

The structures appear in SMILES notation. “Also recorded” adds a separate entry of the source.

Test [1] deals with T1, Ikaros/Cereblon/DDB1 (Homo sapiens, UniProt Q96SW2).
T1 construct: human cereblon (amino acids 5-442); ZZ-domain-6×His-thrombin site (cleaved yes); made in house; host or cells: SF9 insect cells (CRBN-DDB1); E. coli BL21 (DE3) Star (Ikaros)
Nature of the test: cryo-EM of drug-mediated Ikaros recruitment to Cereblon-DDB1. The following applies: wild-type Cereblon/DDB1, FIG. 4C; result in words. How it is done:
(§1) Frozen 20 mg/mL cereblon-DDB1 complexes were thawed and diluted to 5 mg/mL with buffer containing 20 mM HEPES pH 7, 150 mM NaCl, 3 mM TCEP. Immediately prior to plunge-freezing in liquid ethane, samples are diluted 10-fold in the same buffer supplemented with 0.011% Lauryl Maltose-Neopentyl Glycol (LMNG) to limit complex dissociation. Quantifoil 300 mesh R1.2/1.3 UltrAuFoil Holey Gold Films were plasma cleaned for 7 seconds using a Solarus plasma cleaner (Gatan, Inc.) with a 75% nitrogen, 25% oxygen atmosphere at 15 W. Immediately prior to sample application, grids are further pre-treated with 4 μL solution containing 10 μM cereblon binding-deficient mutant Ikaros residues 140-196 Q146A G151N and blotted from behind with torn Whatman 1 filter paper. 4 μL dilute sample is applied, excess sample was blotted away for 4 s and vitrified by manual plunge freezing into a liquid ethane pool cooled by liquid nitrogen using a manual plunger in a 4° C. cold room >95% humidity. Samples containing IMiDs are prepared the same way, with 10× molar equivalent of drug yielding a buffer concentration 20 mM HEPES pH 7, 150 mM NaCl, 3 mM TCEP, <1% DMSO mixed 2 minutes prior to dilution and application to the grid. Similarly, Ikaros samples are prepared by incubation of 2-fold molar excess Ikaros 2 minutes prior to dilution and application to the grid. […]

The target in test [2] is T2, Cereblon-DDB1 (Homo sapiens, UniProt Q96SW2). Nature of the test: hydrogen-deuterium exchange mass spectrometry (HDX-MS) of Cereblon-DDB1 peptides. Further details: made in house. Particulars: compared with unliganded DDB1-Cereblon; result in words. On the procedure:
For peptide identification, differential HDX-MS experiments were conducted as previously described with a few modifications (Chalmers, M. J., et al. (2006). Probing protein ligand interactions by automated hydrogen/deuterium exchange mass spectrometry. Analytical Chemistry, 78(4), 1005-1014). Peptides were identified using tandem MS (MS/MS) with an Orbitrap mass spectrometer (Q Exactive, ThermoFisher). Product ion spectra were acquired in data-dependent mode with the top five most abundant ions selected for the product ion analysis per scan event. The MS/MS data files were submitted to Mascot (Matrix Science) for peptide identification. […] The MASCOT search was repeated against a decoy (reverse) sequence and ambiguous identifications were ruled out and not included in the HDX peptide set. […]
Mass spectrometric data were acquired using an Orbitrap mass spectrometer (Exactive, ThermoFisher). […] The intensity weighted mean m/z centroid value of each peptide envelope was calculated and subsequently converted into a percentage of deuterium incorporation. […] Statistical significance for the differential HDX data is determined by an unpaired t-test for each time point, a procedure that is integrated into the HDX Workbench software (Pascal, B. D., et al. (2012). HDX workbench: software for the analysis of H/D exchange MS data. Journal of the American Society for Mass Spectrometry, 23(9), 1512-1521.). […]

Test [3] concerns the target Cereblon (Homo sapiens, UniProt Q96SW2). The test is described as follows: Cereblon binding affinity. The following applies: CELMoD affinity for Cereblon compared with Pomalidomide/IMiD.
Test [4] has as its target T2, Cereblon-DDB1. The test is described as follows: cryo-EM population analysis of open/closed Cereblon conformers with saturating IMiD/CELMoD. Also on record: human cereblon (amino acids 5-442); ZZ-domain-6×His-thrombin site (cleaved yes); made in house; host or cells: SF9 insect cells. Particulars: wild-type Cereblon-DDB1, saturating amount of drug, cryo-EM single-particle analysis. On the procedure:
as §1

The target in test [5] is T3, P98A Cereblon-DDB1 (Homo sapiens, UniProt Q96SW2, P98A).
T3 construct: human cereblon (amino acids 5-442); ZZ-domain-6×His-thrombin site (cleaved yes); made in house; host or cells: SF9 insect cells (CRBN-DDB1, by 'as before'); E. coli BL21 (DE3) Star (Ikaros)
Nature of the test: cryo-EM of P98A mutant Cereblon saturated with drug along with Ikaros. Particulars: for conformation of P98A Cereblon in presence of drug (open/closed) / recruitment of Ikaros Zf 2-3 to P98A mutant Cereblon: result in words; for recruitment of Ikaros Zf 2-3 to P98A mutant Cereblon: FIG. 9. How it is done: Frozen 20 mg/mL cereblon-DDB1 complexes were thawed and diluted to 5 mg/mL with buffer containing 20 mM HEPES pH 7, 150 mM NaCl, 3 mM TCEP. Immediately prior to plunge-freezing in liquid ethane, samples are diluted 10-fold in the same buffer supplemented with 0.011% Lauryl Maltose-Neopentyl Glycol (LMNG) to limit complex dissociation. Quantifoil 300 mesh R1.2/1.3 UltrAuFoil Holey Gold Films were plasma cleaned for 7 seconds using a Solarus plasma cleaner (Gatan, Inc.) with a 75% nitrogen, 25% oxygen atmosphere at 15 W. Immediately prior to sample application, grids are further pre-treated with 4 μL solution containing 10 μM cereblon binding-deficient mutant Ikaros residues 140-196 Q146A G151N and blotted from behind with torn Whatman 1 filter paper. 4 μL dilute sample is applied, excess sample was blotted away for 4 s and vitrified by manual plunge freezing into a liquid ethane pool cooled by liquid nitrogen using a manual plunger in a 4° C. cold room >95% humidity. Samples containing IMiDs are prepared the same way, with 10× molar equivalent of drug yielding a buffer concentration 20 mM HEPES pH 7, 150 mM NaCl, 3 mM TCEP, <1% DMSO mixed 2 minutes prior to dilution and application to the grid. Similarly, Ikaros samples are prepared by incubation of 2-fold molar excess Ikaros 2 minutes prior to dilution and application to the grid.
Cryo-EM data were collected on a Thermo-Fisher Talos Arctica transmission electron microscope operating at […] using parallel illumination conditions. Micrographs were acquired using a Gatan K2 Summit direct electron detector, operated in electron counting mode applying a total electron exposure of […]. The Leginon data collection software was used to collect 2912 micrographs at 36,000× nominal magnification (1.15 Å/pixel at the specimen level) with a nominal defocus set to −1.5 μm. Variation from the nominally set defocus due to a ˜5% tilt in the stage gave rise to a defocus range (this tilt was not intentional and required service to correct). Stage movement was used to target the center of sixteen 1.2 μm holes for focusing, and an image shift was used to acquire high magnification images in the center of each of the sixteen targeted holes.

[6] abbreviates: P98A mutant Cereblon, saturated with drug along with Ikaros.

As for `O=C1CC[C@H](N2Cc3c(OCc4ccc(CN5CCOCC5)cc4)cccc3C2=O)C(=O)N1` [Compound 1, (S)-3-(4-((4-(morpholinomethyl)benzyl)oxy)-1-oxoisoindolin-2-yl)piperidine-2,6-dione], the “recruitment of Ikaros ZF1-2-3 to CRBN^closed” value in test [1] was “is recruited to CRBN^closed”. Moreover, the “change in solvent accessibility (HDX differential) upon addition of drug” value in test [2] was “affected solvency for both the sensor loop and residues within the Lon domain and HB”. For the same compound, the improved affinity result in test [3] is “approximately 20 fold”. Also, the “particles adopting CRBN^closed conformation” value in test [4] is reported as approximately 50%.
Consider `N#Cc1ccc(N2CCN(Cc3ccc(COc4cccc5c4CN([C@H]4CCC(=O)NC4=O)C5=O)cc3)CC2)c(F)c1` [Compound 2, (S)-4-(4-(4-(((2-(2,6-dioxopiperidin-3-yl)-1-oxoisoindolin-4-yl)oxy)methyl)benzyl)piperazin-1-yl)-3-fluorobenzonitrile], for which, in test [5] (setting [6]), the “particles adopting CRBN^closed conformation with Ikaros bound” value turned out to be 25% and the “conformation of P98A Cereblon in presence of drug (open/closed)” value is listed as “can overcome this mutation”. Besides, the “recruitment of Ikaros Zf 2-3 to P98A mutant Cereblon” value in test [5] is on record as “sufficiently recruits Ikaros Zf 2-3”.
With `Nc1cccc2c1C(=O)N(C1CCC(=O)NC1=O)C2=O` (stereo not drawn) [Pomalidomide, reference compound], the “conformation of P98A Cereblon in presence of drug (open/closed)” value in test [5] (setting [6]) was “exclusively substrate-free open conformers; also recorded: cannot close”. The “recruitment of Ikaros Zf 2-3 to P98A mutant Cereblon” value in test [5] is on record as “insufficient”.
